Calls of active or inactive are those of the source. No cut-off for these calls is given here.
What was measured:
MDA-MB-231 [1] = assay: Suppression of hypoxia-induced upregulation of vimentin expression in human MDA-MB-231 side population cells at 0.25 to 1 mM by Western blot analysis; type: functional; conditions: dose 0.25-1 mM
MDA-MB-231 [2] = assay: Cytotoxicity against human MDA-MB-231 side population cells assessed as reduction in cell viability at 0.25 to 1 mM measured after 24 hrs by CCK-8 assay; type: functional, cell-based; conditions: dose 0.25-1 mM
MDA-MB-231 [3] = assay: Suppression of hypoxia-induced upregulation of N-cadherin expression in human MDA-MB-231 side population cells at 0.25 to 1 mM by Western blot analysis; type: functional; conditions: dose 0.25-1 mM
MCF7 [4] = assay: Cytotoxicity against human MCF7 side population cells assessed as reduction in cell viability at 2 to 4 mM measured after 24 hrs under normoxia condition by CCK-8 assay; type: functional, cell-based; conditions: dose 2-4 mM
MDA-MB-231 [5] = assay: Cytotoxicity against human MDA-MB-231 cells assessed as reduction in cell viability at 1 to 4 mM measured after 24 hrs under normoxia condition by CCK-8 assay; type: functional, cell-based; conditions: dose 1-4 mM
MDA-MB-231 [6] = assay: Cytotoxicity against human MDA-MB-231 side population cells assessed as reduction in cell viability at 2 to 4 mM measured after 24 hrs under normoxia condition by CCK-8 assay; type: functional, cell-based; conditions: dose 2-4 mM
MDA-MB-231 [7] = assay: Inhibition of hypoxia-induced activation of PI3K/Akt/mTOR signaling in human MDA-MB-231 side population cells at 1 nM measured after 24 hrs in presence of IGF-1 by Western blot analysis
MCF7 [8] = assay: Cytotoxicity against human MCF7 cells assessed as reduction in cell viability at 1 to 4 mM measured after 24 hrs under normoxia condition by CCK-8 assay; type: functional, cell-based; conditions: dose 1-4 mM
MCF7 [9] = assay: Cytotoxicity against human MCF7 side population cells assessed as reduction in cell viability at 0.25 to 1 mM measured after 24 hrs under hypoxia condition by CCK-8 assay; type: functional, cell-based; conditions: dose 0.25-1 mM
MDA-MB-231 [10] = assay: Inhibition of hypoxia-induced activation of PI3K/Akt/mTOR signaling in human MDA-MB-231 side population cells assessed as decrease in phosphorylated Akt level at 0.25 to 1 mM measured after 24 hrs by Western blot analysis; conditions: dose 0.25-1 mM
MDA-MB-231 [11] = assay: Inhibition of hypoxia-induced activation of PI3K/Akt/mTOR signaling in human MDA-MB-231 side population cells assessed as decrease in phosphorylated PI3K level at 0.25 to 1 mM measured after 24 hrs by Western blot analysis; conditions: dose 0.25-1 mM
MDA-MB-231 [12] = assay: Suppression of hypoxia-induced upregulation of MMP9 expression in human MDA-MB-231 cells at 0.25 to 1 mM by Western blot analysis; type: functional, cell-based; conditions: dose 0.25-1 mM
MDA-MB-231 [13] = assay: Decrease in hypoxia-induced cell invasion in human MDA-MB-231 side population cells at 0.25 to 1 mM measured after measured after 24 hrs by crystal violet staining based transwell assay; type: functional; conditions: dose 0.25-1 mM
MDA-MB-231 [14] = assay: Suppression of hypoxia-induced upregulation of MMP9 expression in human MDA-MB-231 cells at 1 nM measured after 24 hrs in presence of IGF-1 by Western blot analysis; type: functional, cell-based
MCF7 [15] = assay: Cytotoxicity against human MCF7 side population cells assessed as reduction in cell viability at 2 to 4 mM measured after 24 hrs under hypoxia condition by CCK-8 assay; type: functional, cell-based; conditions: dose 2-4 mM
MCF7 [16] = assay: Decrease in hypoxia-induced cell invasion in human MCF7 side population cells at 0.25 to 1 mM measured after measured after 24 hrs by crystal violet staining based transwell assay; type: functional; conditions: dose 0.25-1 mM
MDA-MB-231 [17] = assay: Inhibition of hypoxia-induced cell invasion in human MDA-MB-231 cells at 0.25 to 1 mM measured after measured after 24 hrs by crystal violet staining based transwell assay; type: functional; conditions: dose 0.25-1 mM
MDA-MB-231 [18] = assay: Suppression of hypoxia-induced upregulation of vimentin expression in human MDA-MB-231 cells at 0.25 to 1 mM by Western blot analysis; type: functional, cell-based; conditions: dose 0.25-1 mM
MDA-MB-231 [19] = assay: Reversal of hypoxia-induced downregulation of E-cadherin expression in human MDA-MB-231 side population cells at 0.25 to 1 mM by Western blot analysis; type: functional; conditions: dose 0.25-1 mM
MDA-MB-231 [20] = assay: Reversal of hypoxia-induced downregulation of E-cadherin expression in human MDA-MB-231 cells at 0.25 to 1 mM by Western blot analysis; type: functional, cell-based; conditions: dose 0.25-1 mM
MDA-MB-231 [21] = assay: Cytotoxicity against human MDA-MB-231 side population cells assessed as reduction in cell viability at 0.25 to 1 mM measured after 24 hrs under hypoxia condition by CCK-8 assay; type: functional, cell-based; conditions: dose 0.25-1 mM
MDA-MB-231 [22] = assay: Cytotoxicity against human MDA-MB-231 side population cells assessed as reduction in cell viability at 2 to 4 mM measured after 24 hrs under hypoxia condition by CCK-8 assay; type: functional, cell-based; conditions: dose 2-4 mM
MDA-MB-231 [23] = assay: Inhibition of hypoxia-induced activation of PI3K/Akt/mTOR signaling in human MDA-MB-231 side population cells assessed as decrease in phosphorylated mTOR level at 0.25 to 1 mM measured after 24 hrs by Western blot analysis; conditions: dose 0.25-1 mM
MCF7 [24] = assay: Cytotoxicity against human MCF7 side population cells assessed as reduction in cell viability at 0.25 to 1 mM measured after 24 hrs by CCK-8 assay; type: functional, cell-based; conditions: dose 0.25-1 mM
MDA-MB-231 [25] = assay: Suppression of hypoxia-induced upregulation of MMP2 expression in human MDA-MB-231 cells at 1 nM measured after 24 hrs in presence of IGF-1 by Western blot analysis; type: functional, cell-based
MCF7 [26] = assay: Inhibition of hypoxia-induced cell invasion in human MCF7 cells at 0.25 to 1 mM measured after measured after 24 hrs by crystal violet staining based transwell assay; type: functional; conditions: dose 0.25-1 mM
MDA-MB-231 [27] = assay: Suppression of hypoxia-induced upregulation of MMP2 expression in human MDA-MB-231 cells at 0.25 to 1 mM by Western blot analysis; type: functional, cell-based; conditions: dose 0.25-1 mM
MDA-MB-231 [28] = assay: Suppression of hypoxia-induced upregulation of N-cadherin expression in human MDA-MB-231 cells at 0.25 to 1 mM by Western blot analysis; type: functional, cell-based; conditions: dose 0.25-1 mM
MCF7 [29] = assay: Cytotoxicity against human MCF7 cells assessed as reduction in cell viability at 0.25 to 1 mM measured after 24 hrs under hypoxia condition by CCK-8 assay; type: functional, cell-based; conditions: dose 0.25-1 mM
MDA-MB-231 [30] = assay: Suppression of hypoxia-induced upregulation of MMP9 expression in human MDA-MB-231 side population cells at 0.25 to 1 mM by Western blot analysis; type: functional; conditions: dose 0.25-1 mM
MDA-MB-231 [31] = assay: Suppression of hypoxia-induced upregulation of MMP2 expression in human MDA-MB-231 side population cells at 0.25 to 1 mM by Western blot analysis; type: functional; conditions: dose 0.25-1 mM
MDA-MB-231 [32] = assay: Cytotoxicity against human MDA-MB-231 cells assessed as reduction in cell viability at 0.25 to 1 mM measured after 24 hrs under hypoxia condition by CCK-8 assay; type: functional, cell-based; conditions: dose 0.25-1 mM

Question: With `COC1=C[C@@H]2[C@@H]3Cc4ccc(OC)c(O)c4[C@]2(CCN3C)CC1=O` as the compound, how does the Activity (MDA-MB-231 [1]) read?
Answer: The Activity was “Active”.

Question: And the Activity (MDA-MB-231 [2])?
Answer: The Activity was “inactive”.

Question: What about the Activity (MDA-MB-231 [3]) of the same compound?
Answer: Its Activity is “Active”.

Question: What about the Activity (MCF7 [4]) of the same compound?
Answer: The Activity was “Active”.

Question: And the Activity (MDA-MB-231 [5])?
Answer: The Activity was “Active”.

Question: And the Activity (MDA-MB-231 [6])?
Answer: Its Activity is “Active”.

Question: And the inhibition (MDA-MB-231 [7])?
Answer: The inhibition was “inactive”.

Question: And the Activity (MCF7 [8])?
Answer: The Activity was “Active”.

Question: And the Activity (MCF7 [9])?
Answer: Its Activity is “inactive”.

Question: And the inhibition (MDA-MB-231 [10])?
Answer: Its inhibition is “Active”.

Question: And the inhibition (MDA-MB-231 [11])?
Answer: Its inhibition is “Active”.

Question: What about the Activity (MDA-MB-231 [12]) of the same compound?
Answer: The Activity was “Active”.

Question: And the Activity (MDA-MB-231 [13])?
Answer: Its Activity is “Active”.

Question: What about the Activity (MDA-MB-231 [14]) of the same compound?
Answer: The Activity was “inactive”.

Question: And the Activity (MCF7 [15])?
Answer: The Activity was “Active”.

Question: And the Activity (MCF7 [16])?
Answer: The Activity was “Active”.

Question: And the inhibition (MDA-MB-231 [17])?
Answer: Its inhibition is “Active”.

Question: What about the Activity (MDA-MB-231 [18]) of the same compound?
Answer: Its Activity is “Active”.

Question: And the Activity (MDA-MB-231 [19])?
Answer: Its Activity is “Active”.

Question: What about the Activity (MDA-MB-231 [20]) of the same compound?
Answer: The Activity was “Active”.

Question: What about the Activity (MDA-MB-231 [21]) of the same compound?
Answer: The Activity was “inactive”.

Question: And the Activity (MDA-MB-231 [22])?
Answer: Its Activity is “Active”.

Question: What about the inhibition (MDA-MB-231 [23]) of the same compound?
Answer: The inhibition was “Active”.

Question: What about the Activity (MCF7 [24]) of the same compound?
Answer: Its Activity is “inactive”.

Question: And the Activity (MDA-MB-231 [25])?
Answer: The Activity was “inactive”.

Question: What about the inhibition (MCF7 [26]) of the same compound?
Answer: Its inhibition is “Active”.

Question: And the Activity (MDA-MB-231 [27])?
Answer: Its Activity is “Active”.

Question: And the Activity (MDA-MB-231 [28])?
Answer: Its Activity is “Active”.

Question: And the Activity (MCF7 [29])?
Answer: Its Activity is “inactive”.

Question: And the Activity (MDA-MB-231 [30])?
Answer: The Activity was “Active”.

Question: What about the Activity (MDA-MB-231 [31]) of the same compound?
Answer: The Activity was “Active”.

Question: And the Activity (MDA-MB-231 [32])?
Answer: The Activity was “inactive”.
